Measurements: patent US7524834B2, “Sterile powders, formulations, and methods for producing the same” (AstraZeneca AB, priority 1997, dated 2009)

Key:
[1] = test system: Bacillus subtilis (globigii) spores; test: Heat sterilization at 110° C. of powder inoculated with spore suspension (Example 2); conditions: for Spore population, After / Spore population, Before: 0.5 g sample; for Spore population, After: after 110° C. for 3 hours and 10 min; for Spore population, Before: before heat treatment; for Spore log reduction: 110° C. for 3 hours and 10 min
Protocol: Samples of 0.5 g of budesonide and of 0.5 g of calcium stearate were each inoculated with 0.1 ml of a Steris Bacillus subtilis (globigii) (Lot#LG126B) spore suspension containing 1.5×10^7 spores. Each sample was subjected to a temperature of 110° C. for 3 hours and 10 min in a Baxter Constant Temperature Oven using the same technique as in Example 1. The spore population of the samples was measured and the results obtained are shown below in Table 2.

spore suspension = test: Decimal reduction time of spores in inoculated glucocorticosteroids at 110° C. (Example 7); conditions: for D110 value: Heating at 110° C., spore suspension different from Example 6
Protocol: 1 g of micronized budesonide, prednisolone and beclomethasone dipropionate and 0.5 g of rofleponide were inoculated with a different spore suspension to the one used in Example 6.
The samples were heat treated at 110° C. A sample was withdrawn after various heating times. The number of spores/g were determined by a pour plate technique according to US Pharmacopoeia 23/NF18, 1995, pp. 1681-1686, especially p. 1684.
From the number of spores before and after heat treatment the log reduction of spores and decimal reduction time (time needed at a specified temperature to reduce the number of microorganisms with one log) was calculated.

C. sporegenes = test: Heat resistance of microorganisms inoculated on budesonide powder (Example 3)
Protocol: (§1) Tests were performed to evaluate the heat resistance of various naturally occurring microorganisms.
(§2) Samples of 0.5 g of budesonide powder were each inoculated with approximately 10^2-10^3 viable ATCC microorganisms in 120 ml open-ended polypropylene container. Each sample was subjected to a temperature of 110° C. for 3 hours and 10 min. The microorganism population of the samples was measured before and after heat treatment and the results obtained are shown below in Table 3.

Salmonella typhi = test: as above
Protocol: as §1, §2

E. coli = test: as above
Protocol: as §1, §2

A. niger = test: as above
Protocol: as §1, §2

C. albicans = test: as above
Protocol: as §1, §2

S. epidermidis = test: as above
Protocol: as §1, §2

B. subtilis ATCC 6633 = test: as above; conditions: for Microorganism population, After: after 110° C. for 3 hours and 10 min; for Microorganism population, Before: before heat treatment
Protocol: as §1, §2

M. luteus = test: as above
Protocol: as §1, §2

Ps. Aeruginosa = test: as above
Protocol: as §1, §2

Bacillus subtilis spores = test: Spore kill kinetics in inoculated micronized budesonide at 100, 110, 120° C., pour plate (Example 6)
Protocol: 5 g of micronized budesonide was inoculated with approximately 2 ml of a spore suspension of Bacillus subtilis.
The substance and the spore suspension were mixed and dried for approximately 3 hours at 55° C. The inoculated and dried budesonide was mixed with 20-40 g of non-inoculated micronized budesonide.
5 g portions of this sample were heat treated at 100° C., 110° C. or 120° C. in a Heraeus ST 5060 heating apparatus. A 1 g sample was withdrawn after various heating times at the respective heating temperatures. Each such 1 g sample was transferred to 10 ml of dilution medium pH 7.2. Appropriate dilutions were made in 0.1% Peptone Aqueous solution and the number of spores/g were determined by a pour plate technique according to US Pharmacopoeia 23/NF18, 1995, pp. 1681-1686, especially p. 1684.
The number of spores before heat treatment were determined in samples heated at 80° C. for 10 min in order to kill the vegetative cells.
The results are shown in Table 6. where the DT value is the amount of time in minutes required to obtain a log 1 reduction in the number of spores before and after heat treatment at the temperature T (in ° C.).

[2] = after 110° C. for 3 hours and 10 min
[3] = B. subtilis ATCC 6633, low inoculum
[4] = 100° C. series, before heat treatment (80° C. 10 min)
[5] = 110° C. series, before heat treatment (80° C. 10 min)
[6] = 120° C. series, before heat treatment (80° C. 10 min)

Compound: calcium stearate
- Spore population, After [1]: 3.3 × 10^6 spores
- Spore population, Before [1]: 1.5 × 10^7 spores
- Spore log reduction [1]: less than 0.7

Compound: CCC[C@@H]1O[C@@H]2C[C@H]3[C@@H]4C[C@H](F)C5=CC(=O)CC[C@]5(C)[C@@]4(F)[C@@H](O)C[C@]3(C)[C@]2(C(=O)CO)O1 [Rofleponide, rofleponide]
- D110 value (spore suspension): 9.8 min
- Spore kill (spore suspension; full 1.0 g sample, cycle times ≧5 minutes at 110° C., D110 could not be calculated): total kill

Compound: CCCC1O[C@@H]2C[C@H]3[C@@H]4CCC5=CC(=O)C=C[C@]5(C)[C@H]4[C@@H](O)C[C@]3(C)[C@]2(C(=O)CO)O1 (stereo partly shown) [Budesonide, budesonide]
- Microorganism population, After (C. sporegenes; [2]): 0
- Microorganism population, Before (C. sporegenes; before heat treatment): 160
- Microorganism population, After (Salmonella typhi; [2]): 0
- Microorganism population, Before (Salmonella typhi; before heat treatment): 270
- Microorganism population, After (E. coli; [2]): 0
- Microorganism population, Before (E. coli; before heat treatment): 450
- Microorganism population, After (A. niger; [2]): 0
- Microorganism population, Before (A. niger; before heat treatment): 260
- Microorganism population, After (C. albicans; [2]): 0
- Microorganism population, Before (C. albicans; before heat treatment): 780
- Microorganism population, After (S. epidermidis; [2]): 0
- Microorganism population, Before (S. epidermidis; before heat treatment): 240
- Microorganism population, After (B. subtilis ATCC 6633; B. subtilis ATCC 6633, high inoculum, singular bacillus species in 10^0 dilution plate): 1^1
- Microorganism population, Before (B. subtilis ATCC 6633; B. subtilis ATCC 6633, high inoculum): 1.2 × 10^5
- Microorganism population, After (B. subtilis ATCC 6633; [3]): 0
- Microorganism population, Before (B. subtilis ATCC 6633; [3]): 300
- Microorganism population, After (M. luteus; [2]): 0
- Microorganism population, Before (M. luteus; before heat treatment): 300
- Microorganism population, After (Ps. Aeruginosa; [2]): 0
- Microorganism population, Before (Ps. Aeruginosa; before heat treatment): 350
- Spore population, After [1]: <10 spores
- Spore population, Before [1]: 1.5 × 10^7 spores
- Spore log reduction [1]: greater than 6.2
- D100 (time for log 1 reduction in number of spores) (Bacillus subtilis spores; 100° C.): D100 = 41.5 min; correlation coefficient = −0.0996 This means that it takes 6 × 41.5 minutes to obtain a log 6 reduction in the number of spores at a temperature of 100 °C
- log spores/g (Bacillus subtilis spores; [4]): 6.81
- spores/g (Bacillus subtilis spores; [4]): 6.5 × 10^6 spores/g
- log spores/g (Bacillus subtilis spores; 100° C., 15 min): 3.68
- spores/g (Bacillus subtilis spores; 100° C., 15 min): 4.8 × 10^3 spores/g
- log spores/g (Bacillus subtilis spores; 100° C., 45 min): 2.85
- spores/g (Bacillus subtilis spores; 100° C., 45 min): 7.1 × 10^2 spores/g
- log spores/g (Bacillus subtilis spores; 100° C., 75 min): 2.23
- spores/g (Bacillus subtilis spores; 100° C., 75 min): 1.7 × 10^2 spores/g
- D110 (time for log 1 reduction in number of spores) (Bacillus subtilis spores; 110° C.): D110 = 8.3 min; correlation coefficient = −0.995 This means that it takes 6 × 8.3 minutes to obtain a log 6 reduction in the number of spores at a temperature of 110 °C
- log spores/g (Bacillus subtilis spores; [5]): 6.20
- spores/g (Bacillus subtilis spores; [5]): 2 × 10^6 spores/g
- log spores/g (Bacillus subtilis spores; 110° C., 5 min): 4.32
- spores/g (Bacillus subtilis spores; 110° C., 5 min): 2.08 × 10^4 spores/g
- log spores/g (Bacillus subtilis spores; 110° C., 15 min): 2.97
- spores/g (Bacillus subtilis spores; 110° C., 15 min): 9.25 × 10^2 spores/g
- log spores/g (Bacillus subtilis spores; 110° C., 20 min): 2.55
- spores/g (Bacillus subtilis spores; 110° C., 20 min): 3.55 × 10^2 spores/g
- D120 (time for log 1 reduction in number of spores) (Bacillus subtilis spores; 120° C.): D120 = 4.1 min; correlation coefficient = −0.998 This means that it takes 6 × 4.1 minutes to obtain a log reduction in the number of spores at a temperature of 120 °C
- log spores/g (Bacillus subtilis spores; [6]): 6.19
- spores/g (Bacillus subtilis spores; [6]): 1.5 × 10^6 spores/g
- log spores/g (Bacillus subtilis spores; 120° C., 4 min): 2.28
- spores/g (Bacillus subtilis spores; 120° C., 4 min): 1.9 × 10^2 spores/g
- log spores/g (Bacillus subtilis spores; 120° C., 6 min): 1.74
- spores/g (Bacillus subtilis spores; 120° C., 6 min): 5.5 × 10^1 spores/g
- log spores/g (Bacillus subtilis spores; 120° C., 8 min): 1.30
- spores/g (Bacillus subtilis spores; 120° C., 8 min): 2 × 10^1 spores/g
- D110 value (spore suspension): 41 min

Compound: C[C@]12C=CC(=O)C=C1CC[C@@H]1[C@@H]2[C@@H](O)C[C@@]2(C)[C@H]1CC[C@]2(O)C(=O)CO [Prednisolone, prednisolone]
- D110 value (spore suspension): 73.8 min

Compound: CCC(=O)OCC(=O)[C@@]1(OC(=O)CC)[C@@H](C)C[C@H]2[C@@H]3CCC4=CC(=O)C=C[C@]4(C)[C@@]3(Cl)[C@@H](O)C[C@@]21C [Beclomethasone dipropionate, beclomethasone dipropionate]
- D110 value (spore suspension): 72.7 min
